# From article PMC6716272, “In Vivo and In Vitro Analyses of Novel Peptidomimetic Disruptors for the Serotonin 5-HT2C Receptor Interaction With Phosphatase and Tensin Homolog” (Frontiers in Pharmacology, 2019)
# Experiments:
# PTEN = PTEN lipid phosphatase activity assay (competitive ELISA for PI(4,5)P2); format: biochemical; conditions: 15 min preincubation 37°C with 1 ng/µl PTEN, then 4 µM PI(3,4,5)P3 2.25 h, two independent experiments in triplicate
# Description: Lipid phosphatase activity of PTEN was quantified using a PTEN activity ELISA kit (K-4700, Echelon Biosciences, Salt Lake City, UT) following the manufacturer’s protocol. Briefly, 1 ng/µl PTEN enzyme (E-3000, Echelon Bioscience) was incubated with PTEN inhibitor SF1670 (200 µM), 1, 2, and 2 derivatives (10 µM) for 15 min at 37°C. Then, PI(3,4,5)P3 substrate was added for a final concentration of 4 µM, and the reaction was incubated at 37°C for 2.25 h. The lipid phosphatase activity of PTEN was quantified by measuring the amount of PI(4,5)P2 by competitive ELISA in which final absorbance is inversely related to the amount of PI(4,5)P2. The absorbance was measured by FlexStation3 at 450 nm (Molecular Devices). Results are represented as fold change over PTEN + PI(3,4,5)P3 alone (mean ± SD) of two independent experiments run in technical triplicates and analyzed by one-way ANOVA with a priori comparison with PTEN + PI(3,4,5)P3 alone (Dunnett’s; GraphPad Prism 7.02). All statistical analyses were conducted with an experiment-wise error rate of α = 0.05.
# [1] = system: cocaine–saline-trained rats; assay: Two-lever drug discrimination, cocaine (5 mg/kg) vs saline; format: in vivo, rat; conditions: for cocaine-lever responding in substitution test / response rate in substitution test: SB242084 0.5 mg/kg; for cocaine-lever responding in substitution test: cocaine 2.5 mg/kg, i.p.; for cocaine-lever responding, pretreatment before cocaine (2.5 mg/kg): lorcaserin 1 mg/kg (30 min) or SB242084 0.5 mg/kg (45 min) before test
# Description: (§1) Experimentally naïve male Sprague-Dawley rats (n = 43; Envigo, Inc.) weighing 300–325 g at the beginning of the experiment were housed two per cage in a temperature- (21–23°C) and humidity- (45–50%) controlled environment; lighting was maintained under a 12-h light–dark cycle (0700–1900 h). Rats were maintained at 80–90% of their free-feeding weights by restricting access to water. Rats received water during daily training sessions (5–6 ml/rat/session), in the afternoon several hours after training (20 min), and over the weekend (36 h). Experiments were conducted during the light phase of the light–dark cycle (between 0900 and 1200 h) and were carried out in accordance with the National Institutes of Health Guide for the Care and Use of Laboratory Animals and with the approval of the Institutional Animal Care and Use Committee at University of Texas Medical Branch.
# (§2) The procedures were conducted in commercially available two-lever operant chambers (Med Associates, St. Albans, VT). Each chamber was equipped with a water-filled dispenser mounted equidistantly between two retractable response levers on the wall and housed in a light- and soundproof cubicle. Illumination came from a 28-V house light; ventilation and masking noise were provided by a ventilation fan in the right-side wall. A computer with Med-PC IV software was used to run programs and record all experimental events.
# (§3) Standard two-lever, water-reinforced drug discrimination procedures were used ([Appel and Cunningham, 1986]; [Callahan and Cunningham, 1995]; [Colpaert, 1999]). Three cohorts (n = 13–16/cohort) were trained to discriminate an injection of a training drug from saline (1.0 ml/kg, i.p.) administered 15 min before start of daily (Monday–Friday) training sessions. In one cohort (n = 14), rats were trained to discriminate the training drug lorcaserin (0.75 mg/kg, 1.0 ml/kg, i.p.) from saline. In a second cohort (n = 13), rats were trained to discriminate the training drug WAY163909 (0.75 mg/kg, 1.0 ml/kg, i.p.) from saline. In the third cohort, rats (n = 16) were trained to discriminate the training drug cocaine (5 mg/kg, 1.0 ml/kg, i.p.) from saline. Two rats in the lorcaserin–saline cohort were excluded from the present study due to failure to maintain the discrimination. Rats in the WAY163909–saline cohort also participated in additional studies ([Wild et al., 2018]); the WAY163909 dose–response curve was reevaluated between studies; a washout period was allowed, and no carryover effects were observed.
# (§4) During this phase, only the stimulus-appropriate (drug or saline) lever was present. Training began under a fixed ratio 1 (FR 1) schedule of water reinforcement, and the FR requirement was incremented until all animals were responding reliably under an FR 20 schedule for each experimental condition. For half of the rats, left lever responses were reinforced after training drug administration, whereas right lever responses were reinforced after saline administration; conditions were reversed for the remaining animals. During this phase of training, drug and saline were administered irregularly with the restriction that neither condition prevailed for more than three consecutive sessions.
# (§5) After responding stabilized, both levers were presented simultaneously during 15-min training sessions. The rats were required to respond on the stimulus-appropriate (correct) lever to obtain water reinforcement. There were no programmed consequences for responding on the incorrect lever. This phase of training continued until the performance of all rats attained criterion (defined as mean accuracies of at least 80% stimulus-appropriate responding for 10 consecutive sessions).
# (§6) Test sessions were initiated and conducted once or twice per week following attainment of criterion. Training sessions were run during the intervening days to maintain discrimination accuracy. […]
# [2] = system: lorcaserin–saline-trained rats; assay: Two-lever drug discrimination, lorcaserin (0.75 mg/kg) vs saline; format: in vivo, rat
# Description: as §1, §2, §3, §4, §5, §6
# [3] = system: WAY163909–saline-trained rats; assay: Two-lever drug discrimination, WAY163909 (0.75 mg/kg) vs saline; format: in vivo, rat
# Description: as §1, §2, §3, §4, §5, §6
# [4] = system: human unedited 5-HT2CR (h5-HT2CR-CHO cells); format: cell-based; conditions: for EMAX (%5-HT): maximum 5-HT-induced Cai2+ release in presence of 1 nM peptide derivative, 5-HT vehicle, 10^-11 to 10^-6 M, 5-HT alone = 100%, AUC normalised to crystal violet, mean ± SEM of 4–5 biological replicates, SEM; for change of 5-HT EC50 / potency versus 5-HT alone: pretreatment with 1 nM peptide; for elevation of the maximum Cai2+ release induced by 5-HT: pretreatment with peptide (1 nM), p < 0.05
# [5] = system: human unedited 5-HT2CR (h5-HT2CR-CHO cells); conditions: ref Anastasio et al., 2013; cited from earlier work
# Source text: Agonist binding to the 5-HT2CR results in dynamic changes in receptor conformation and induction of a variety of intracellular signaling pathways ([Berg et al., 1994]; [McGrew et al., 2002]; [Werry et al., 2005]; [Labasque et al., 2008]). Best characterized is coupling of the 5-HT2CR to Gαq/11 proteins to activate phospholipase Cβ (PLCβ), resulting in increased intracellular calcium (Cai ^2+) release, among various other signaling outcomes ([Millan et al., 2008]). One approach to selectively target the 5-HT2CR signaling is through protein–protein interactions that are selective for 5-HT2CR ove ...
# [6] = vs previous cocaine maintenance session, lorcaserin 1 mg/kg, p < 0.05
molecule,measurement,setting,value
CC(C)(C)C(=O)Nc1ccc2c(c1)C(=O)C(=O)c1ccccc1-2 [SF1670],PTEN lipid phosphatase activity,PTEN; 200 µM inhibitor,suppresses PTEN lipid phosphatase activity
COC(=O)[C@H]1[C@@H](OC(=O)c2ccccc2)C[C@@H]2CC[C@H]1N2C [cocaine],cocaine-lever responding in substitution test,[1]; lorcaserin 1 mg/kg,full substitution
same,response rates after training drug,"[1]; training sessions, cocaine 5 mg/kg i.p., not statistically different from saline",25.6 ± 0.55 min⁻¹
"c1cc2c3c(c1)[C@H]1CCC[C@H]1N3CCNC2 [WAY163909, (7b-R,10a-R)-1,2,3,4,8,9,10,10a-octahydro-7bH-cyclopenta[b][1,4] diazepino [6,7,1hi] indole]",substitution for lorcaserin,"[2]; substitution test, WAY163909 0.75 mg/kg i.p., full substitution = ≥80% drug-appropriate responding",full substitution
same,response rate in substitution test,"[2]; vs previous lorcaserin maintenance session, WAY163909 0.75 mg/kg, TAT-r3L4F 2 µmol/kg (trend for 1 µmol/kg)",suppressed response rates similar to the training drug
same,ED50 (WAY163909-lever responding),"[3]; i.p., 15 min before test, 95% CI 0.51–0.61 mg/kg",0.56 mg/kg
same,response rates after training drug versus saline,"[3]; training sessions, WAY163909 0.75 mg/kg i.p., p < 0.05",lower than rates after saline
"Ac-PNQDQNARRRKKKERR-NH2 [h3L4F, 16 amino acid peptide homologous to a fragment of the third intracellular loop of the human 5-HT2CR]",EMAX (%5-HT),[4],131 ± 6.3%
same,change of 5-HT EC50 / potency versus 5-HT alone,[4],no change in EC50
same,elevation of the maximum Cai2+ release induced by 5-HT,[4],~30%
same,PTEN lipid phosphatase activity,PTEN; 10 µM peptide,do not suppress PTEN lipid phosphatase activity
same,effect on 5-HT2CR agonist-mediated Cai2+ release,[5],enhance
"(S)-1-((S)-4-amino-2-((3S,4S)-4-((S)-1-((S)-1-carboxy-4-guanidinobutylamino)-1-oxo-propan-2-ylcarbamoyl)pyrrolidine-3-carboxamido)-4-oxobutanoyl)pyrrolidine-2-carboxylic acid [compound 7]",potentiation of 5-HT-induced Cai2+ release (in words),"[4]; 1 nM peptide, Welch's t-test vs 5-HT alone, α = 0.05",potentiated
same,EMAX (%5-HT),[4],125 ± 5.2%
same,drug-lever responding in combination with lorcaserin (0.5 mg/kg),"[2]; combination test, i.p., TAT-r3L4F 2 µmol/kg (p < 0.05), peptide 7 2, 5 µmol/kg","modestly, but not significantly, enhanced"
same,response rate in combination with lorcaserin (0.5 mg/kg),"[2]; combination test, i.p., TAT-r3L4F 2 µmol/kg, peptide 7 2, 5 µmol/kg",no change in rate
same,drug-like responding,"[2]; substitution test, i.p., TAT-r3L4F 1, 2 µmol/kg, peptide 7 1, 2, 5 µmol/kg (data not shown)",< 20%
Cc1cc2c(cc1Cl)N(C(=O)Nc1ccc(Oc3cccnc3C)nc1)CC2 [SB242084],lorcaserin (1 mg/kg)-mediated suppression of cocaine (2.5 mg/kg) lever responding and response rate after SB242084 pretreatment,[1]; SB242084 0.5 mg/kg + lorcaserin 1 mg/kg + cocaine 2.5 mg/kg,fully recovered
same,"cocaine-lever responding, pretreatment before cocaine (2.5 mg/kg)",[1]; combination test,did not alter cocaine lever-responding or response rate
same,cocaine-lever responding in substitution test,[1]; lorcaserin 1 mg/kg,engendered primarily saline-lever responding
same,response rate in substitution test,[1]; [6],slight but significant increase in response rate
"Ac-PNQDQNAR-NH2 [compound 2, shorter eight amino acid version of h3L4F]",EMAX (%5-HT),[4],118 ± 4.0%
same,change of 5-HT EC50 / potency versus 5-HT alone,[4],no change in EC50
same,elevation of the maximum Cai2+ release induced by 5-HT,[4],~20%
same,PTEN lipid phosphatase activity,PTEN; 10 µM peptide,do not suppress PTEN lipid phosphatase activity
same,effect on 5-HT2CR agonist-mediated Cai2+ release,[5],enhance
"C[C@H]1CNCCc2ccc(Cl)cc21 [lorcaserin, (1R)-8-chloro-2,3,4,5-tetrahydro-1-methyl-1H-3 benzazepine]",ED50,"[2]; Rattus norvegicus, read-out: ED50 (dose predicted to elicit 50% lorcaserin-lever responding)",0.54 mg/kg
same,response rates after training drug versus saline,"[2]; training sessions, lorcaserin 0.75 mg/kg i.p., p < 0.05",lower than rates after saline
same,response rate in substitution test,"[3]; lorcaserin 1 mg/kg (vs saline), TAT-r3L4F 1, 2 µmol/kg (vs previous WAY163909 maintenance session)",suppressed response rates versus saline
same,substitution for WAY163909,"[3]; substitution test, lorcaserin 1 mg/kg i.p.",full substitution
same,lever responding in substitution test (low-dose series),"[1]; TAT-r3L4F alone 1, 2 µmol/kg, lorcaserin alone 0.5 mg/kg, data not shown",saline-appropriate responding
same,full substitution evoked by cocaine (2.5 mg/kg) after lorcaserin (0.5 mg/kg) alone,"[1]; combination test, lorcaserin 0.5 mg/kg + cocaine 2.5 mg/kg",not suppressed
same,"cocaine-lever responding, pretreatment before cocaine (2.5 mg/kg)",[1]; combination test,significantly reduced cocaine lever-appropriate responding
same,"response rate, pretreatment before cocaine (2.5 mg/kg)","[1]; combination test, lorcaserin 1 mg/kg, p < 0.05",significantly reduced
same,behavioral disruption (failure to complete FR 20),"[1]; lorcaserin 1 mg/kg i.p. alone, two rats failed to complete the FR 20 schedule",induces behavioral disruption
same,cocaine-lever responding in substitution test,[1]; lorcaserin 1 mg/kg,engendered primarily saline-lever responding
same,response rates associated with cocaine (2.5 mg/kg),"[1]; lorcaserin alone 0.5 mg/kg, or TAT-r3L4F 1, 2 µmol/kg plus lorcaserin 0.5 mg/kg, p < 0.05",significantly suppressed the response rates
same,response rate in substitution test (low-dose series),"[1]; vs previous cocaine maintenance session, TAT-r3L4F alone 1, 2 µmol/kg, lorcaserin alone 0.5 mg/kg, data not shown",significant reduction in response rates
same,response rate in substitution test,[1]; [6],significant reduction in response rate
